pKi: −log10 of the molar value.
Legend:
Experiment in all cases: biochemical
Fluc-Bpe [1] = target: Fluc-Bpe (Bordetella pertussis, UniProt Q7VYU0, R29K)
Text: planar lipid bilayer, block of fluoride current, two-site fit on Fluc-Bpe

Fluc-Bpe [2] = target: Fluc-Bpe (Bordetella pertussis, UniProt Q7VYU0, E88Q/R29K/S83C)
Text: (§1) planar lipid bilayer, block of fluoride current, oriented channels, single-site fit on Fluc-Bpe

Fluc-Bpe [3] = target: Fluc-Bpe (Bordetella pertussis, UniProt Q7VYU0, R29K/S83C)
Text: as §1

Chain of Fluc-Bpe (Bordetella pertussis, UniProt Q7VYU0, R29K) (Q7VYU0 whole entry R29K): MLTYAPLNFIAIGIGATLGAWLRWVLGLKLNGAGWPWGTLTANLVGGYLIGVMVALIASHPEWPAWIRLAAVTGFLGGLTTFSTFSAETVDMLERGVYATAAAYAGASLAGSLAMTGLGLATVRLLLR
Chain of Fluc-Bpe (Bordetella pertussis, UniProt Q7VYU0, R29K/S83C) (Q7VYU0 whole entry R29K/S83C): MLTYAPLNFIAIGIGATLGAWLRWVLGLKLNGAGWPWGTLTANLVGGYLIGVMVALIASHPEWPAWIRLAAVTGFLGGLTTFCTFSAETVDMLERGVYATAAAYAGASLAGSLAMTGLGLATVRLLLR
Chain of Fluc-Bpe (Bordetella pertussis, UniProt Q7VYU0, E88Q/R29K/S83C) (Q7VYU0 whole entry E88Q/R29K/S83C): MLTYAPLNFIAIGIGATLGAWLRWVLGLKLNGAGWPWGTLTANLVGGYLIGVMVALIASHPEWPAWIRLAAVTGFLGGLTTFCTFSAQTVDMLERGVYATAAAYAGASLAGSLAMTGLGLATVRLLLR

Row | SMILES | pKi (Fluc-Bpe [1]) | pKi (Fluc-Bpe [2]) | pKi (Fluc-Bpe [3])
1 | O=[N+]([O-])O [NO3^-] | 1.35 | – | –
2 | N#CO [OCN^-] | 2.17 | 1.31 | 2.10
3 | N#CS [SCN^-] | 2.05 | – | –

From paper PMC8315801, “The fluoride permeation pathway and anion recognition in Fluc family fluoride channels” (eLife, 2021)
